Measured values from article PMC6934184, “Selective DNA-PKcs inhibition extends the therapeutic index of localized radiotherapy and chemotherapy” (The Journal of Clinical Investigation, 2019).

Target: T1, NEK6 (Homo sapiens, UniProt Q9HC98)
T1 construct: purchased Thermo Fisher Scientific (Life Technologies) SelectScreen
Assay: SelectScreen Z'LYTE
Format: biochemical
Summary of the method: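 SelectScreen broad panel; activity (Z'LYTE, Adapta) plus binding formats. ATP: Km app for CSF1R Z'LYTE; 10 for CAMK1 Adapta. Readout = % per kinase.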

T1 sequence (Q9HC98 whole entry): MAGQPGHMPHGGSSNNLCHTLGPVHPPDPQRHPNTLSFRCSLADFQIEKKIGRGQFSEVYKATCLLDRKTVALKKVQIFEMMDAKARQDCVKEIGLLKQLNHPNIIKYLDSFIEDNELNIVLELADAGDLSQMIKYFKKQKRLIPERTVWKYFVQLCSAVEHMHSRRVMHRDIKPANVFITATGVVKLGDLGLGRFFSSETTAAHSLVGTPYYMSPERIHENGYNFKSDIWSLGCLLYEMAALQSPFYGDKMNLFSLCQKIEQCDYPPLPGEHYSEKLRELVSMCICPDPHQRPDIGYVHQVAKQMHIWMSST

Q: With `CN(C(=O)CN1CCOCC1)c1ccc2sc3c(-c4cccc5c(=O)cc(N6CC7CCC(C6)O7)oc45)cccc3c2c1` [NU5455] as the compound, how does the inhibition at 1 µM read?
A: -19.8%
